What follows are compounds tested against T1, human Nav1.7 channels (Homo sapiens, UniProt Q15858) (assay: FRET assay, human Nav1.7 (EFS on FDSS)). Details: CHO cells expressing human Nav1.7, read-out: IC50 against Nav1.7.
T1 construct: expressed in transfected cells; host or cells: CHO
Format: cell-based
Procedure, shortened: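 CHO cells stably expressing the channel, loaded with CC2-DMPE (10 µM) then DiSBAC2(3) (15 µM) plus VABSC-1, in HEPES-buffered saline pH 7.4 at room temperature. Electrical field stimulation on FDSS; FRET ratio at 440 nm fitted for IC50.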

T1 sequence (Q15858 whole entry): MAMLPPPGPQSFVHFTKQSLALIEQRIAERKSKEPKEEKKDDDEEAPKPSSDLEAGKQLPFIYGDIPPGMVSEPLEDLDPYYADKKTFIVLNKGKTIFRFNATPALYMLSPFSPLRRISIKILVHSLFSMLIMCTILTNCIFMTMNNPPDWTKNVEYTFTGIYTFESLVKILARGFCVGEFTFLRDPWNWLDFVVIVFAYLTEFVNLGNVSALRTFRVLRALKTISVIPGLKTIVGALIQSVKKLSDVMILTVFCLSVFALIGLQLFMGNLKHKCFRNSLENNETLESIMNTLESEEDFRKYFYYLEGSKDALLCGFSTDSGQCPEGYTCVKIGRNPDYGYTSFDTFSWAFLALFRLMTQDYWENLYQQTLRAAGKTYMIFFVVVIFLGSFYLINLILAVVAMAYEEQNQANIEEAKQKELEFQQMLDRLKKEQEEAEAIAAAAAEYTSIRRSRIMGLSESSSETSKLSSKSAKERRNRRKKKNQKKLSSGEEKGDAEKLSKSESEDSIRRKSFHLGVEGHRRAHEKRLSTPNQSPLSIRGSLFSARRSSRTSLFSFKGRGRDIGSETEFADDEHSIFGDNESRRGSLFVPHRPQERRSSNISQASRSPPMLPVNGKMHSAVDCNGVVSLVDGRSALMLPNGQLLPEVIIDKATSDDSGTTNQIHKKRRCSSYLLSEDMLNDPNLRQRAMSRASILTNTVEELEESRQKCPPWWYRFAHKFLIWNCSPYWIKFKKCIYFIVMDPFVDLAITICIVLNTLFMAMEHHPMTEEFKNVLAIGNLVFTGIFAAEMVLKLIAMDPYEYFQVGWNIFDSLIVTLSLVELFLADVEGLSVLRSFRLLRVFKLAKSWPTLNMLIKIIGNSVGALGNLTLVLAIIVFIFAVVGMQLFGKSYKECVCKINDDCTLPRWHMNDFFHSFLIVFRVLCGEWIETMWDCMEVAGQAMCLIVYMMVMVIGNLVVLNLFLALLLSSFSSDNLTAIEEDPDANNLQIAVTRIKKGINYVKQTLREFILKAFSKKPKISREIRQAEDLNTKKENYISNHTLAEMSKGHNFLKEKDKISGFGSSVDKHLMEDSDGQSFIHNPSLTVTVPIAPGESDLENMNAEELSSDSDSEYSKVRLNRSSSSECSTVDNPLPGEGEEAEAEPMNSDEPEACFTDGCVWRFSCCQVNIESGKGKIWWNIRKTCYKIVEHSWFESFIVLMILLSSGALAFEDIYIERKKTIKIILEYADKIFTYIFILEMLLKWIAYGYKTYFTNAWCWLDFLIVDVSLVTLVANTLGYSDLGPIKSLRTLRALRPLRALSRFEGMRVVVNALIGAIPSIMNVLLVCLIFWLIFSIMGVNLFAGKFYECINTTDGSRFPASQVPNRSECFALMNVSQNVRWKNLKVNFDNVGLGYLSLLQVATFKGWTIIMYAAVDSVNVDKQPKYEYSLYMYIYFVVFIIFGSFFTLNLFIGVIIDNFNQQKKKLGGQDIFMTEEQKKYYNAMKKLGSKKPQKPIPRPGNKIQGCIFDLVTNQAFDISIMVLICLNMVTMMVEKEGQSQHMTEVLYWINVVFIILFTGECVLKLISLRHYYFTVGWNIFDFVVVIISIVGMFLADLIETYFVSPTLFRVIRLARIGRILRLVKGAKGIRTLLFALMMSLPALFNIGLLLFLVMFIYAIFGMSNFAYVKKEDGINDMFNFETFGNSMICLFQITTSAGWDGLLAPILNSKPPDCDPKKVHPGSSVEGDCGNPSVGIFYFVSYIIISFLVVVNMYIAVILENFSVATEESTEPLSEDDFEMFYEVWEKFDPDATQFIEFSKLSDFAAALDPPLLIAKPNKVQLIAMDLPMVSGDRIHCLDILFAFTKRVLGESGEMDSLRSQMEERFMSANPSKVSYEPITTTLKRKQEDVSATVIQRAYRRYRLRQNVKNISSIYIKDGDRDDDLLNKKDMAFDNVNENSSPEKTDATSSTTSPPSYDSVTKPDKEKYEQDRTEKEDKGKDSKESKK

IC50, < 1000 nM:
O=C(NCc1ccc(OCC(F)(F)C(F)F)nc1)c1ccnc(NC(=O)C2CC2)n1 [Example 651, 2-(cyclopropanecarboxamido)-N-((6-(2,2,3,3-tetrafluoropropoxy)pyridin-3-yl)methyl)pyrimidine-4-carboxamide]
Cc1cc(C(=O)NC(C)c2cnc(OCC(F)(F)F)c(Cl)c2)cc(NC(=O)C(C)C)n1 (single isomer, unassigned) [Example 521, N-(1-(5-chloro-6-(2,2,2-trifluoroethoxy)pyridin-3-yl)ethyl)-2-isobutyramido-6-methylisonicotinamide]
COc1cc(OC(F)(F)F)ccc1CNC(=O)c1ccnc(NC(=O)C(C)C)c1 [Example 869, 2-isobutyramido-N-(2-methoxy-4-(trifluoromethoxy)benzyl)isonicotinamide]
Cc1cc(C(=O)NC(C)c2cnc(OCC(F)(F)F)c(Cl)c2)nc(NC(=O)C(C)C)n1 (single isomer, unassigned) [Example 216, N-(1-(5-chloro-6-(2,2,2-trifluoroethoxy)pyridin-3-yl)ethyl)-2-isobutyramido-6-methylpyrimidine-4-carboxamide]
Cc1cc(CNC(=O)c2ccnc(NC(=O)C3CC3)c2)ccc1OCC(F)F [Example 990, 2-(cyclopropanecarboxamido)-N-(4-(2,2-difluoroethoxy)-3-methylbenzyl)isonicotinamide]
CCC(=O)Nc1cc(C(=O)NC(C)c2ccc(OCC(F)(F)F)cc2Cl)ccn1 (single isomer, unassigned) [Example 797, N-(1-(2-chloro-4-(2,2,2-trifluoroethoxy)phenyl)ethyl)-2-propionamidoisonicotinamide]
CC(C)C(=O)Nc1cc(C(=O)NC(C)c2ccc(OCC(F)(F)F)cc2)ccn1 (single isomer, unassigned) [Example 562, 2-isobutyramido-N-(1-(4-(2,2,2-trifluoroethoxy)phenyl)ethyl)isonicotinamide]
Cc1cc(C(=O)NC(C)c2ccc(OCC(F)(F)C(F)F)nc2)cc(NC(=O)C(C)C)n1 (single isomer, unassigned) [Example 657, 2-isobutyramido-6-methyl-N-(1-(6-(2,2,3,3-tetrafluoropropoxy)pyridin-3-yl)ethyl)isonicotinamide]
Cc1cc(CNC(=O)c2ccnc(NC(=O)C3CC3)n2)ccc1OCC(F)F [Example 992, 2-(cyclopropanecarboxamido)-N-(4-(2,2-difluoroethoxy)-3-methylbenzyl)pyrimidine-4-carboxamide]
CCCC(=O)Nc1cc(C(=O)NC(C)c2ccc(OCC(C)(F)F)nc2)ccn1 (single isomer, unassigned) [Example 787, 2-butyramido-N-(1-(6-(2,2-difluoropropoxy)pyridin-3-yl)ethyl)isonicotinamide]
Cc1cc(C(=O)NCc2cccc(OCC(F)F)c2C)cc(NC(=O)C(C)C)n1 [Example 1131, N-(3-(2,2-difluoroethoxy)-2-methylbenzyl)-2-isobutyramido-6-methylisonicotinamide]
O=C(NCc1cccc(OCC(F)(F)F)n1)c1cccc2[nH]c(=O)[nH]c12 [Example 57, 2-oxo-N-((6-(2,2,2-trifluoroethoxy)pyridin-2-yl)methyl)-2,3-dihydro-1H-benzo[d]imidazole-4-carboxamide]
COc1cc(OC(F)(F)F)ccc1CNC(=O)c1cc(C)nc(NC(C)=O)c1 [Example 870, 2-acetamido-N-(2-methoxy-4-(trifluoromethoxy)benzyl)-6-methylisonicotinamide]
CCC(=O)Nc1cc(C(=O)NCc2ccnc(OCC(F)(F)F)c2)cc(C)n1 [Example 137, 2-methyl-6-propionamido-N-((2-(2,2,2-trifluoroethoxy)pyridin-4-yl)methyl)isonicotinamide]
Cc1cc(C(=O)NC(C)c2ccc(OCC(F)(F)F)c(Cl)c2)nc(NC(=O)C2CC2)n1 (single isomer, unassigned) [Example 679, N-(1-(3-chloro-4-(2,2,2-trifluoroethoxy)phenyl)ethyl)-2-(cyclopropanecarboxamido)-6-methylpyrimidine-4-carboxamide]
CC(=O)Nc1cc(C(=O)NC(C)c2cccc(OCC(F)(F)F)c2)ccn1 (single isomer, unassigned) [Example 84, 2-acetamido-N-(1-(3-(2,2,2-trifluoroethoxy)phenyl)ethyl)isonicotinamide]
Cc1cc(C(=O)NCc2ccc(OCC(F)F)cc2Cl)cc(NC(=O)C(C)C)n1 [Example 1049, N-(2-chloro-4-(2,2-difluoroethoxy)benzyl)-2-isobutyramido-6-methylisonicotinamide]
Cc1cc(C(=O)N[C@H](C)c2cccc(C(F)(F)F)c2)cc(NC(=O)C(C)C)n1 (single isomer, unassigned) [Example 531]
COc1c(CNC(=O)c2ccnc(NC(=O)C(C)C)c2)cccc1C(F)(F)F [Example 820, 2-isobutyramido-N-(2-methoxy-3-(trifluoromethyl)benzyl)isonicotinamide]
CCC(=O)Nc1cc(C(=O)NCc2ccc(O[C@H](C)C(F)(F)F)nc2)cc(C)n1 (single isomer, unassigned) [Example 318]
CC(C)C(=O)Nc1cc(C(=O)NC(C)c2ccc(OCC(F)(F)F)cc2Cl)ccn1 (single isomer, unassigned) [Example 799, N-(1-(2-chloro-4-(2,2,2-trifluoroethoxy)phenyl)ethyl)-2-isobutyramidoisonicotinamide]
CCC(=O)Nc1cc(C(=O)NC(C)c2ccc(OCC(F)(F)F)c(Cl)c2)ccn1 (single isomer, unassigned) [Example 673, N-(1-(3-chloro-4-(2,2,2-trifluoroethoxy)phenyl)ethyl)-2-propionamidoisonicotinamide]
Cc1cc(C(=O)NC(C)c2ccc(OCC(C)(F)F)nc2)cc(NC(=O)C2CC2)n1 (single isomer, unassigned) [Example 1064]
CCOc1nc(OCC(F)(F)F)ccc1CNC(=O)c1ccnc(NC(=O)CC)c1 [Example 333, N-((2-ethoxy-6-(2,2,2-trifluoroethoxy)pyridin-3-yl)methyl)-2-propionamidoisonicotinamide]
Cc1cc(C(=O)NC(C)c2ccc(OCC(F)F)c(C)c2)cc(NC(=O)C(C)C)n1 (single isomer, unassigned) [Example 865, N-(1-(4-(2,2-difluoroethoxy)-3-methyphenyl)ethyl)-2-isobutyramido-6-methylisonicotinamide]
Cc1cc(C(=O)NCc2ccc(OCC(F)(F)F)nc2)cc(NC(=O)C2CC2)n1 [Example 822, 2-(cyclopropanecarboxamido)-6-methyl-N-((6-(2,2,2-trifluoroethoxy)pyridin-3-yl)methyl)isonicotinamide]
CC(=O)Nc1nccc(C(=O)NC(C)c2cnc(OCC(F)(F)F)c(C)c2)n1 (single isomer, unassigned) [Example 234, 2-acetamido-N-(1-(5-methyl-6-(2,2,2-trifluoroethoxy)pyridin-3-yl)ethyl)pyrimidine-4-carboxamide]
CC(=O)Nc1cc(C(=O)NCc2cnc(OCC(F)F)c(C3CC3)c2)cc(C)n1 [Example 1082, 2-acetamido-N-((5-cyclopropyl-6-(2,2-difluoroethoxy)pyridin-3-yl)methyl)-6-methylisonicotinamide]
Cc1cc(C(=O)NC(C)c2ccc(OCC(F)F)cc2C)cc(NC(=O)C(C)C)n1 (single isomer, unassigned) [Example 1104, N-(1-(4-(2,2-difluoroethoxy)-2-methylphenyl)ethyl)-2-isobutyramido-6-methylisonicotinamide]
CC(NC(=O)c1ccnc(NC(=O)C2CC2)c1)c1ccc(OCC(F)(F)C(F)(F)F)nc1 (single isomer, unassigned) [Example 689, 2-(cyclopropanecarboxamido)-N-(1-(6-(2,2,3,3,3-pentafluoropropoxy)pyridin-3-yl)ethyl)isonicotinamide]
CC(=O)Nc1cc(C(=O)NCc2ccc(OCC(F)(F)F)nc2N2CCCCC2)cc(C)n1 [Example 307, 2-acetamido-6-methyl-N-((2-(piperidin-1-yl)-6-(2,2,2-trifluoroethoxy)pyridin-3-yl)methyl)isonicotinamide]
CC(=O)Nc1cc(C(=O)NC(C)c2cnc(OCC(F)(F)F)c(Cl)c2)ccn1 (single isomer, unassigned) [Example 52, 2-acetamido-N-(1-(5-chloro-6-(2,2,2-trifluoroethoxy)pyridin-3-yl)ethyl)isonicotinamide]
CC(=O)Nc1cc(C(=O)NC(C)c2ccc(OCC(F)(F)F)c(Cl)c2)cc(C)n1 (single isomer, unassigned) [Example 676, 2-acetamido-N-(1-(3-chloro-4-(2,2,2-trifluoroethoxy)phenyl)ethyl)-6-methylisonicotinamide]
CC(=O)Nc1cc(C(=O)NC(C)c2cc(C)nc(OCC(F)(F)F)c2)ccn1 (single isomer, unassigned) [Example 73, 2-acetamido-N-(1-(2-methyl-6-(2,2,2-trifluoroethoxy)pyridin-4-yl)ethyl)isonicotinamide]
CC(C)C(=O)Nc1nccc(C(=O)NCc2cnc(OCC(F)(F)F)c(Cl)c2)n1 [Example 412, N-((5-chloro-6-(2,2,2-trifluoroethoxy)pyridin-3-yl)methyl)-2-isobutyramidopyrimidine-4-carboxamide]
Cc1cc(C(=O)NCc2cccc(C(F)(F)F)c2F)cc(NC(=O)C(C)C)n1 [Example 876, N-(2-fluoro-3-(trifluoromethyl)benzyl)-2-isobutyramido-6-methylisonicotinamide]

From patent publication US9302991B2, “Arylamide derivatives as TTX-S blockers” (RaQualia Pharma Inc., priority 2010, dated 2016)
